Laboratory results taken from ChEMBL document CHEMBL1130420 (J Med Chem, 1997).

Experiments:
Estrogen receptor [1] = target: T1, Estrogen receptor (Homo sapiens, UniProt Q92731+P03372); conditions: t-47d
Description: Inhibition of estradiol-stimulated T-47D cell proliferation.

Estrogen receptor [2] = target: T1, Estrogen receptor; conditions: t-47d; remark: listed apart in the source
Description: Apparent binding affinity against estradiol-stimulated T-47D cell proliferation

[3] = target: T2, Estrogen receptor (Mus musculus) (UniProt O08537+P19785); experiment: (§1) Uterine weight after 9 day treatment at 1.6 ug by oral gavage to ovariectomised mice with estrone; type: functional, tissue-based; conditions: Uterus
[4] = target: T2, Estrogen receptor (Mus musculus); experiment: (§2) Uterine weight after 9 day treatment at 16 ug by oral gavage to ovariectomised mice with estrone; type: functional, tissue-based; conditions: Uterus
Estrogen receptor [5] = target: T1, Estrogen receptor; experiment: Relative Binding Affinity for estrogen receptor in Human Breast cancer or normal uterine cytosol in 3.3%ethanol compared to estradiol; type: protein assay; conditions: Uterus
[6] = target: T2, Estrogen receptor (Mus musculus); experiment: (§3) Uterine weight after 9 day treatment at 0.47 ug by oral gavage to ovariectomised mice with estrone; type: functional, tissue-based; conditions: Uterus
[7] = target: T2, Estrogen receptor (Mus musculus); experiment: Uterine weight after 9 day treatment at 47 ug by oral gavage to ovariectomised mice with estrone; type: functional, tissue-based; conditions: Uterus
[8] = target: T2, Estrogen receptor (Mus musculus); experiment: (§4) Uterine weight after 9 day treatment at 47 ug by oral gavage to ovariectomised mice without estrone; type: functional, tissue-based; conditions: Uterus
[9] = target: T2, Estrogen receptor (Mus musculus); experiment: (§5) Uterine weight after 9 day treatment at 4.7 ug by oral gavage to ovariectomised mice without estrone; type: functional, tissue-based; conditions: Uterus
Estrogen receptor [10] = target: T1, Estrogen receptor
Description: Inhibition of estradiol binding to estrogen receptor in Human Breast cancer cytosol (3.3% ethanol)

[11] = target: T2, Estrogen receptor (Mus musculus); experiment: (§6) Uterine weight after 9 day treatment at 0.47 ug by oral gavage to ovariectomised mice without estrone; type: functional, tissue-based; conditions: Uterus
[12] = target: T2, Estrogen receptor (Mus musculus); experiment: Uterine weight after 9 day treatment at 1.6 ug by oral gavage to ovariectomised mice without estrone; type: functional, tissue-based; conditions: Uterus
[13] = target: T2, Estrogen receptor (Mus musculus); experiment: (§7) Uterine weight after 9 day treatment at 16 ug by oral gavage to ovariectomised mice without estrone; type: functional, tissue-based; conditions: Uterus
[14] = target: T2, Estrogen receptor (Mus musculus); experiment: Uterine weight after 9 day treatment at 4.7 ug by oral gavage to ovariectomised mice with estrone; type: functional, tissue-based; conditions: Uterus
[15] = target: T2, Estrogen receptor (Mus musculus); experiment: as §4; type: functional, tissue-based; conditions: Uterus; remark: listed apart in the source
[16] = target: T2, Estrogen receptor (Mus musculus); experiment: as §1; type: functional, tissue-based; conditions: Uterus; remark: listed apart in the source
[17] = target: T2, Estrogen receptor (Mus musculus); experiment: as §5; type: functional, tissue-based; conditions: Uterus; remark: listed apart in the source
Estrogen receptor [18] = target: T1, Estrogen receptor; remark: listed apart in the source
Description: Apparent inhibition constant for estrogen receptor in Human uterine cytosol in 3.3%ethanol

[19] = target: T2, Estrogen receptor (Mus musculus); experiment: as §6; type: functional, tissue-based; conditions: Uterus; remark: listed apart in the source
[20] = target: T2, Estrogen receptor (Mus musculus); experiment: as §7; type: functional, tissue-based; conditions: Uterus; remark: listed apart in the source
[21] = target: T2, Estrogen receptor (Mus musculus); experiment: as §2; type: functional, tissue-based; conditions: Uterus; remark: listed apart in the source
[22] = target: T2, Estrogen receptor (Mus musculus); experiment: as §5; type: functional, tissue-based; conditions: Uterus; remark: listed apart in the source
[23] = target: T2, Estrogen receptor (Mus musculus); experiment: as §3; type: functional, tissue-based; conditions: Uterus; remark: listed apart in the source
Estrogen receptor [24] = target: T1, Estrogen receptor; experiment: Stimulation of alkaline phosphatase activity in human endometrial Ishikawa cells with 1 nM E2 estradiol; type: functional, cell-based
[25] = target: T2, Estrogen receptor (Mus musculus); experiment: as §4; type: functional, tissue-based; conditions: Uterus; remark: listed apart in the source

T2 sequence (O08537 whole entry, looked up): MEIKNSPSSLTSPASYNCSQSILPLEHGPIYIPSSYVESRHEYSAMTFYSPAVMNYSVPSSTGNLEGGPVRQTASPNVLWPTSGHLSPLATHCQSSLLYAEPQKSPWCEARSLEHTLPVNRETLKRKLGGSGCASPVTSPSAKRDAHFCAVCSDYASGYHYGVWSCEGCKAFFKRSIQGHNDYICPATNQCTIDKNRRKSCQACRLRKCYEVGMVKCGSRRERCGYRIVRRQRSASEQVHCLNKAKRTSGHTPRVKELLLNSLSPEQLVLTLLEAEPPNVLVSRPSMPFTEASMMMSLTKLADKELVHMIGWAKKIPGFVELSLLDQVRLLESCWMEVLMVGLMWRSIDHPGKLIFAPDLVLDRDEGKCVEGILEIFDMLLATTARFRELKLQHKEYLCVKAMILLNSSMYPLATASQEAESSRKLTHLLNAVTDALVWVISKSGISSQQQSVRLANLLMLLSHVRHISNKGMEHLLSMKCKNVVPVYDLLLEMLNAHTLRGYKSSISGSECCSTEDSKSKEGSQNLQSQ
T2 sequence (P19785 whole entry, looked up): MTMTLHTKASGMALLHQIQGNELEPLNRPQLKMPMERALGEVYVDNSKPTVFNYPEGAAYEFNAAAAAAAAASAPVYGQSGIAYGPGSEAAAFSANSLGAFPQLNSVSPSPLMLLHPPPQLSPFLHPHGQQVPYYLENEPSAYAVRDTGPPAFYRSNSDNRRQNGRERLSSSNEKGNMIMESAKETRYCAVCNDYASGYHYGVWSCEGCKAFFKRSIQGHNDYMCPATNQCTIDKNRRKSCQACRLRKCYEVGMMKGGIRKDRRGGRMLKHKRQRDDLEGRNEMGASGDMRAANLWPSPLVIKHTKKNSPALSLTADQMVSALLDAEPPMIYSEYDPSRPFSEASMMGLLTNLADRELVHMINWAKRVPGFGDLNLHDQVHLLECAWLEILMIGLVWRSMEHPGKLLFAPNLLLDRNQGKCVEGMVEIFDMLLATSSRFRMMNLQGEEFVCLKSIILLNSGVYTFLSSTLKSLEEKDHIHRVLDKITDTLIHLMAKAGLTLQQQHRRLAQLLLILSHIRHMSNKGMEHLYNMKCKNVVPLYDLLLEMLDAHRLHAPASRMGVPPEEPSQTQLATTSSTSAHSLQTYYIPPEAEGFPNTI

| IC50 (Estrogen receptor [1]) [nM] | Ki (Estrogen receptor [2]) [nM] | Weight [3] [mg] | Weight [4] [mg] | Weight [6] [mg] | Weight [7] [mg] | Weight [8] [mg] | Weight [9] [mg] | Ki (Estrogen receptor [10]) [nM] | Weight [11] [mg] | Weight [12] [mg] | Weight [13] [mg] | Weight [14] [mg] | SMILES | also measured |
| --- | --- | --- | --- | --- | --- | --- | --- | --- | --- | --- | --- | --- | --- | --- |
| 4.6 | 0.525 |  |  |  |  |  |  |  |  |  |  |  | Oc1ccc(C2=Cc3ccc(O)cc3OC2c2ccc(OCCN3CCCCC3)cc2)cc1 (stereo unspecified) |  |
| 36.2 | 4.22 | 88.6 | 75.7 | 83.1 | 61.1 | 18 | 19.8 | > 270 | 16.5 | 17.2 | 15.7 | 91.2 | CC1=C(c2ccc(OC(=O)C(C)(C)C)cc2)[C@@H](c2ccc(OCCN3CCCCC3)cc2)Oc2cc(OC(=O)C(C)(C)C)ccc21 | RBA (Estrogen receptor [5]): < 0.04 |
| 0.14 | 0.016 | 53.4 | 28.9 | 72.9 | 31.7 | 21.1 | 24.5 | 4.71 | 19 | 24.1 | 19.4 | 33.3 | CC1=C(c2ccc(OC(=O)C(C)(C)C)cc2)[C@H](c2ccc(OCCN3CCCCC3)cc2)Oc2cc(OC(=O)C(C)(C)C)ccc21 | Weight [15]: 28.1 mg; Weight [16]: 53 mg; Weight [17]: 24.7 mg; Ki (Estrogen receptor [18]): 11.14 nM; Weight [19]: 21 mg; Weight [20]: 24 mg; Weight [21]: 29.2 mg; Weight [22]: 35.3 mg; Weight [23]: 84 mg; IC50 (Estrogen receptor [24]): 1.3 nM; Ki (Estrogen receptor [24]): 0.023 nM; Weight [25]: 25 mg |
